# Like-named read-outs stand apart in the source and are kept apart here. Residues, ends and D or L forms follow the SMILES beside them.
# Experiments:
# [1] = Biodistribution in normal C57 mice; format: in vivo; details: C57, mouse, lung, iv, 0.037 MBq, total radioactivity
# Method: (§1) Biodistribution Studies: All the animal studies were conducted in compliance with Institutional Animal Care and Use Committee approval. B16/F10 pulmonary metastatic melanoma model was established by injecting 0.2 million of cultured B16/F10 cells into each C57 mouse (Harlan, Indianapolis, Ind.) through the tail vein. The B16/F10 pulmonary metastatic melanoma-bearing C57 mice were used for biodistribution studies 16 days after the cell injection. The pharmacokinetics of ^111In-DOTA-GlyGlu-CycMSH was determined in B16/F10 pulmonary metastatic melanoma-bearing and normal C57 mice. HPLC-purified 0.037 MBq of ^111In-DOTA-GlyGlu-CycMSH was injected into each mouse through the tail vein. Groups of 5 mice were sacrificed at 2, 4 and 24 h post-injection, and tumors and organs of interest were harvested, weighed and counted. Blood values were taken as 6.5% of the whole-body weight. Statistical analysis was performed using the Student's t-test for unpaired data.
# [2] = tested on: B16/F10 pulmonary melanoma metastases; format: in vivo, mouse; details: mouse, in vivo
# Method: Metastatic Melanoma Imaging: A pulmonary metastatic melanoma-bearing mouse was used for [^18F]FDG PET imaging 16 days after the cell injection and used for ^111In-DOTA-GlyGlu-CycMSH SPECT/CT imaging on next day (a time interval of 26 h) to compare the difference in detection efficiency between [^18F]FDG and ^111In-DOTA-GlyGlu-CycMSH. The mouse was injected with 35.15 MBq of commercial [^18F]FDG (Biotech, N. Mex.) via the tail vein. At 1 h post-injection, the mouse was anesthetized with 1.5% isoflurane and placed in the prone position near the center of the field of view of small animal PET (LabPET™) (Gamma Medica-Ideas, Sherbrooke, Quebec). A 30-min static scan was acquired, and the image was reconstructed by maximum likelihood estimation method (MLEM). The mouse was returned to the cage for recovery after the ^18F-FDG PET imaging study was completed. The same mouse was injected with 24.05 MBq of ^111In-DOTA-GlyGlu-CycMSH via the tail vein 24 h after the ^18F-FDG PET imaging study. The mouse was anesthetized with 1.5% isoflurane for small animal SPECT/CT (Nano-SPECT/CT®, Bioscan) imaging 2 h post-injection. The 6-min CT imaging was immediately followed by the focused SPECT imaging of lung. The SPECT scans of 24 projections were acquired and total acquisition time was 45 min. After the focused lung imaging, the mouse was sacrificed with CO2 inhalation for whole-body SPECT/CT imaging. The 9-min CT imaging was immediately followed by the SPECT imaging of whole-body. Reconstructed data from SPECT and CT were visualized and co-registered using InVivoScope (Bioscan, Washington D.C.). Necropsy analysis of the mouse was performed to confirm the pulmonary metastatic melanoma lesions after the SPECT/CT imaging studies were completed. To monitor the development of pulmonary melanoma metstases with ^111In-DOTA-GlyGlu-CycMSH, a pulmonary metastatic melanoma-bearing mouse was injected with 10.36 MBq of ^111In-DOTA-GlyGlu-CycMSH through the tail vein for small animal SPECT/CT imaging 20 days after the cell injection. […]
# [3] = Biodistribution in B16/F10 pulmonary metastatic melanoma-bearing C57 mice; format: in vivo, mouse; details: C57, mouse, iv, 0.037 MBq, total radioactivity
# Method: as §1
# [4] = tested on: B16/F10 pulmonary metastatic melanoma-bearing C57 mice; test: as above; format: in vivo, mouse
# Method: as §1
# [5] = Urinary metabolites by HPLC in B16/F1 melanoma-bearing C57 mice; format: in vivo, mouse; details: urine, 2 h post-injection
# Method: Urinary Metabolites of ^111In-DOTA-CycMSH and ^111In-DOTA-GlyGlu-CycMSH: One hundred microliter of HPLC purified ^111In-DOTA-CycMSH (0.74-1.11 MBq, 0.82-1.12 ng) or ^111In-DOTA-GlyGlu-CycMSH (0.74-1.11 MBq, 0.90-1.35 ng) was injected into each B16/F1 murine melanoma-bearing C57 mouse through the tail vein. At 2 h after dose administration, mice were sacrificed and the urine was collected. The radioactive metabolites in the urine were analyzed by injecting aliquots of urine into HPLC. A 20-minute gradient of 16-26% acetonitrile/20 mM HCl was used for the urine analysis.
# [6] = Stability in mouse serum monitored by RP-HPLC; format: in vitro ADME; details: 37° C., 24 h incubation
# Method: Complexation of the Peptide with ^111In: ^111In-DOTA-CycMSH and ^111In-DOTA-GlyGlu-CycMSH were prepared using a 0.5 M NH4OAc-buffered solution at pH 5.4. Briefly, 50 μl of ^111InCl3 (18.5-37.0 MBq in 0.05 M HCl), 10 μl of 1 mg/ml DOTA-CycMSH or DOTA-GlyGlu-CycMSH aqueous solution and 400 μl of 0.5 M NH4OAc (pH 5.4) were added into a reaction vial and incubated at 75° C. for 45 min. After the incubation, 20 μl of 0.5% EDTA aqueous solution was added into the reaction vial to scavenge potential unbound ^111In. The radiolabeled complexes were purified to single species by Waters RP-HPLC (Milford, Mass.) on a Grace Vadyc C-18 reverse phase analytical column (Deerfield, Ill.) using a 20-minute gradient of 16-26% acetonitrile in 20 mM HCl aqueous solution with a flowrate of 1 ml/min. Purified peptide samples were purged with N2 gas for 20 minutes to remove the acetonitrile. The pH of final solution was adjusted to 7.4 with 0.1 N NaOH and normal saline for animal studies. The stability of ^111In-DOTA-CycMSH and ^111In-DOTA-GlyGlu-CycMSH was determined by incubation in mouse serum at 37° C. according to the published procedure (20) for various time periods, and monitored for degradation by RP-HPLC.
smiles,measurement,setting,value
"CCCC[C@@H]1NC(=O)[C@@H](NC(=O)[C@H](CCC(=O)O)NC(=O)CNC(=O)CN2CCN(CC(=O)O)CCN(CC(=O)O)CCN(CC(=O)O)CC2)CCCCNC(=O)[C@H](CC(=O)O)NC(=O)[C@H](C(C)C)NC(=O)[C@@H]2CCCN2C(=O)[C@H](CCCNC(=N)N)NC(=O)CNC(=O)[C@H](Cc2c[nH]c3ccccc23)NC(=O)[C@H](CCCNC(=N)N)NC(=O)[C@@H](Cc2ccccc2)NC(=O)[C@H](Cc2c[nH]cn2)NC(=O)[C@H](CCC(=O)O)NC1=O [^111In-DOTA-GlyGlu-CycMSH, metal not drawn] (HELM PEPTIDE1{[O=C(O)CN1CCN(CC(=O)O)CCN(CC(=O)[*:2])CCN(CC(=O)O)CC1].G.E.K.[Nle].E.H.[dF].R.W.G.R.P.V.D}$PEPTIDE1,PEPTIDE1,4:R3-15:R2$$$V2.0)",tissue uptake at 2 h,[1]; 2 h post-injection,0.08 ± 0.08 %ID/g
same,tissue uptake at 4 h,[1]; 4 h post-injection,0.05 ± 0.05 %ID/g
same,tissue uptake at 24 h,[1]; 24 h post-injection,0.03 ± 0.02 %ID/g
same,accumulation of activity in normal organs in whole-body image,[2],extremely low except for the kidneys
same,dose excreted,"[3]; in vivo, at 24 h post-injection, read-out: injected radioactivity cleared out the body",~96%
same,tissue uptake at 2 h,"[3]; metastatic melanoma-bearing lung, 2 h post-injection, 16 days post the cell injection",2 ± 0.74 %ID/g
same,tissue uptake at 4 h,"[3]; metastatic melanoma-bearing lung, 4 h post-injection, 16 days post the cell injection",1.83 ± 0.12 %ID/g
same,tissue uptake at 24 h,"[3]; metastatic melanoma-bearing lung, 24 h post-injection, 16 days post the cell injection",0.29 ± 0.06 %ID/g
same,dose excreted,"[3]; urine, by 2 h post-injection, read-out: injected radioactivity cleared through the urinary system",~84%
same,uptake in metastatic melanoma-bearing lung relative to normal lung,[4]; 2 h post-injection,25.0 times
same,uptake in metastatic melanoma-bearing lung relative to normal lung,[4]; 4 h post-injection,36.6 times
same,uptake in metastatic melanoma-bearing lung relative to normal lung,[4]; 24 h post-injection,9.7 times
same,urinary metabolites by RP-HPLC,[5],transformed to two more polar metabolites
same,stability in mouse serum,[6],stable

# Reference: patent US11160887B2, “Compositions for use in diagnosing and treating melanoma, including metastatic melanoma and methods related to same” (UNM RAINFOREST INNOVATIONS, priority 2008, dated 2021)
